Our source for the Ki values is ChEMBL document CHEMBL1126588 (J Med Chem, 1993).

Usually Ki stands for a dissociation constant, usually derived from enzyme kinetics or from competition with a known ligand.

In experiment [1] the target is T1, Neuropeptide Y receptor type 1 (Homo sapiens, UniProt P25929).
T1 sequence (P25929 whole entry): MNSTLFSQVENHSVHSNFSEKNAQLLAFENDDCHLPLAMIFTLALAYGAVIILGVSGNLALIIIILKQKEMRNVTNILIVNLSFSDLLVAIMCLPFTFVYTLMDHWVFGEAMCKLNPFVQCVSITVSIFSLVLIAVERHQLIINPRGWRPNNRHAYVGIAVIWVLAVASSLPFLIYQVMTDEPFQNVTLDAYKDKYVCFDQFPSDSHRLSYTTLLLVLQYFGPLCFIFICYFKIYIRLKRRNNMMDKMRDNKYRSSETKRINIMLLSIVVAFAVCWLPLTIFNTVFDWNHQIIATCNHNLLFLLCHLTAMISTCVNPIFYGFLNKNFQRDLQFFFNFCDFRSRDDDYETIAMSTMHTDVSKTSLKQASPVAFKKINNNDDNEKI
In words: Tested against neuropeptide Y1 receptors using SK-N-MC human neuroblastoma cells. The class given is cell-based.

Experiment [2] has as its target T2, Neuropeptide Y receptor type 2 (Homo sapiens, UniProt P49146).
T2 sequence (P49146 whole entry): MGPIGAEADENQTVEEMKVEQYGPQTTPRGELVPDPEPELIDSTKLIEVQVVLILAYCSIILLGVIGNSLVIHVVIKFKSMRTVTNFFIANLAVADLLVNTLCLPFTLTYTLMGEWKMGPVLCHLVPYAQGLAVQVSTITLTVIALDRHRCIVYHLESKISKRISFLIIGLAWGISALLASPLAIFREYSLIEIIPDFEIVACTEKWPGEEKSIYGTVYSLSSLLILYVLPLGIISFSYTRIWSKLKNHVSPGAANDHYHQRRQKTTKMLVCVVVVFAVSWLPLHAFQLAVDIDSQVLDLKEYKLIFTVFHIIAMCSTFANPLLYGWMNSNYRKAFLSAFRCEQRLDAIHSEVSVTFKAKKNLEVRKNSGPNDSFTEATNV
In words: Tested against neuropeptide Y2 receptors using SK-N-BE2 human neuroblastoma cells.

Where a SMILES comes first, the peptide text is derived from it. [ ]: non-standard residue; d: D form. Ahx = NCCCCCC(=O)O Where only a bound is given, the exact number is not on record here.

Regarding `CC[C@H](C)[C@H](NC(=O)[C@H](CC(C)C)NC(=O)[C@H](CC(N)=O)NC(=O)[C@@H](NC(=O)[C@H]1CNC(=O)CC[C@H](NC(=O)[C@@H](N)Cc2ccc(O)cc2)C(=O)N[C@@H](CO)C(=O)N[C@@H](CCCCN)C(=O)NCCCCCC(=O)N[C@@H](CCCN=C(N)N)C(=O)N[C@@H](Cc2c[nH]cn2)C(=O)N1)[C@@H](C)CC)C(=O)N[C@H](C(=O)N[C@@H](CCCN=C(N)N)C(=O)N[C@@H](CCC(N)=O)C(=O)N[C@@H](CCCN=C(N)N)C(=O)N[C@@H](Cc1ccc(O)cc1)C(N)=O)[C@@H](C)O`, the inhibitory constant (Ki) is 220 nM in experiment [1] (sk-n-mc) and 2.3 nM in experiment [2].

As to `CC[C@H](C)[C@H](NC(=O)[C@H](CC(C)C)NC(=O)[C@H](CC(N)=O)NC(=O)[C@@H](NC(=O)[C@H]1CNC(=O)CC[C@H](NC(=O)[C@@H](N)Cc2ccc(O)cc2)C(=O)N[C@@H](CO)C(=O)N[C@@H](CCCCN)C(=O)N2CCC[C@H]2C(=O)N[C@H](C)C(=O)N[C@@H](CCCN=C(N)N)C(=O)N[C@@H](Cc2c[nH]cn2)C(=O)N1)[C@@H](C)CC)C(=O)N[C@H](C(=O)N[C@@H](CCCN=C(N)N)C(=O)N[C@@H](CCC(N)=O)C(=O)N[C@@H](CCCN=C(N)N)C(=O)N[C@@H](Cc1ccc(O)cc1)C(N)=O)[C@@H](C)O`, the Ki was above 1000 nM in experiment [1] (sk-n-mc) and 0.3 nM in experiment [2].

On to `CC[C@H](C)[C@H](NC(=O)[C@H](CC(C)C)NC(=O)[C@H](CC(N)=O)NC(=O)[C@@H](NC(=O)[C@H]1CNC(=O)C[C@H](NC(=O)[C@@H](N)Cc2ccc(O)cc2)C(=O)N[C@@H](CO)C(=O)N[C@@H](CCCCN)C(=O)N2CCC[C@H]2C(=O)N[C@H](C)C(=O)N[C@@H](CCCNC(=N)N)C(=O)N[C@@H](Cc2c[nH]cn2)C(=O)N1)[C@@H](C)CC)C(=O)N[C@H](C(=O)N[C@@H](CCCNC(=N)N)C(=O)N[C@@H](CCC(N)=O)C(=O)N[C@@H](CCCNC(=N)N)C(=O)N[C@@H](Cc1ccc(O)cc1)C(=O)O)[C@@H](C)O`, for which the Ki was above 1000 nM in experiment [1] (sk-n-mc) and 1.5 nM in experiment [2].

Take `CC[C@H](C)[C@H](NC(=O)[C@H](CC(C)C)NC(=O)[C@H](CC(N)=O)NC(=O)[C@@H](NC(=O)[C@H]1CNC(=O)CC[C@H](NC(=O)[C@@H](N)Cc2ccc(O)cc2)C(=O)N[C@@H](CO)C(=O)N[C@@H](CCCCN)C(=O)N2CCC[C@H]2C(=O)NCC(=O)N[C@@H](CCCN=C(N)N)C(=O)N[C@@H](Cc2c[nH]cn2)C(=O)N1)[C@@H](C)CC)C(=O)N[C@H](C(=O)N[C@@H](CCCN=C(N)N)C(=O)N[C@@H](CCC(N)=O)C(=O)N[C@@H](CCCN=C(N)N)C(=O)N[C@@H](Cc1ccc(O)cc1)C(N)=O)[C@@H](C)O`: the values for the Ki in experiment [1] (sk-n-mc) and in experiment [2] were 130 nM and 0.3 nM, respectively.

Turning to `CC[C@H](C)[C@H](NC(=O)[C@H](CC(C)C)NC(=O)[C@H](CC(N)=O)NC(=O)[C@@H](NC(=O)[C@H]1CNC(=O)CC[C@@H](NC(=O)[C@@H](N)Cc2ccc(O)cc2)C(=O)N[C@@H](CO)C(=O)N[C@@H](CCCCN)C(=O)N2CCC[C@H]2C(=O)N[C@H](C)C(=O)N[C@@H](CCCN=C(N)N)C(=O)N[C@@H](Cc2c[nH]cn2)C(=O)N1)[C@@H](C)CC)C(=O)N[C@H](C(=O)N[C@@H](CCCN=C(N)N)C(=O)N[C@@H](CCC(N)=O)C(=O)N[C@@H](CCCN=C(N)N)C(=O)N[C@@H](Cc1ccc(O)cc1)C(N)=O)[C@@H](C)O`, the Ki in experiment [1] (sk-n-mc) worked out at 230 nM; in experiment [2] it was 1.1 nM.

Consider `CC[C@H](C)[C@@H]1NC(=O)[C@H](CC(C)C)NC(=O)[C@H](CC(N)=O)NC(=O)[C@@H](NC(=O)[C@H]2CNC(=O)CC[C@H](NC(=O)[C@@H](N)Cc3ccc(O)cc3)C(=O)N[C@@H](CO)C(=O)N[C@@H](CCCCN)C(=O)N3CCC[C@H]3C(=O)N[C@H](C)C(=O)N[C@@H](CCCN=C(N)N)C(=O)N[C@@H](Cc3c[nH]cn3)C(=O)N2)CCCCNC(=O)CC[C@@H](C(=O)N[C@@H](CCCN=C(N)N)C(=O)N[C@@H](CCC(N)=O)C(=O)N[C@@H](CCCN=C(N)N)C(=O)N[C@@H](Cc2ccc(O)cc2)C(N)=O)NC1=O`, for which the Ki in experiment [1] (sk-n-mc) was above 1000 nM; in experiment [2], 0.3 nM.

Consider `CC[C@H](C)[C@H](NC(=O)[C@H](Cc1ccc(O)cc1)NC(=O)[C@H](Cc1c[nH]cn1)NC(=O)[C@H](CCCN=C(N)N)NC(=O)[C@H](CC(C)C)NC(=O)[C@H](C)NC(=O)[C@H](CO)NC(=O)[C@H](Cc1ccc(O)cc1)NC(=O)[C@H](Cc1ccc(O)cc1)NC(=O)[C@H](CCCN=C(N)N)NC(=O)[C@H](C)NC(=O)[C@H](CC(C)C)NC(=O)[C@H](CC(=O)O)NC(=O)[C@H](CCC(=O)O)NC(=O)[C@H](C)NC(=O)[C@@H]1CCCN1)C(=O)N[C@@H](CC(N)=O)C(=O)N[C@@H](CC(C)C)C(=O)N[C@H](C(=O)N[C@H](C(=O)N[C@@H](CCCN=C(N)N)C(=O)N[C@@H](CCC(N)=O)C(=O)N[C@@H](CCCN=C(N)N)C(=O)N[C@@H](Cc1ccc(O)cc1)C(=O)O)[C@@H](C)O)[C@@H](C)CC`, for which, in experiment [2], the Ki is 0.8 nM.

`CC[C@H](C)[C@H](NC(=O)[C@H](Cc1ccc(O)cc1)NC(=O)[C@H](Cc1cnc[nH]1)NC(=O)[C@H](CCCNC(=N)N)NC(=O)[C@@H](C)NC(=O)[C@@H]1CCCN1C(=O)[C@H](CCCCN)NC(=O)[C@H](CO)NC(=O)[C@@H]1CCCN1C(=O)[C@@H](N)Cc1ccc(O)cc1)C(=O)N[C@@H](CC(N)=O)C(=O)N[C@@H](CC(C)C)C(=O)N[C@H](C(=O)N[C@H](C(=O)N[C@@H](CCCNC(=N)N)C(=O)N[C@@H](CCC(N)=O)C(=O)N[C@@H](CCCNC(=N)N)C(=O)N[C@@H](Cc1ccc(O)cc1)C(=O)O)[C@@H](C)O)[C@@H](C)CC`: the inhibition constant (Ki) in experiment [1] was found to be 290 nM; in experiment [2], 0.9 nM.

As to `CC[C@H](C)[C@H](NC(=O)[C@H](CC(C)C)NC(=O)[C@H](CC(N)=O)NC(=O)[C@@H](NC(=O)[C@H]1CCCCNC(=O)C[C@H](NC(=O)[C@@H](N)Cc2ccc(O)cc2)C(=O)N[C@@H](CO)C(=O)N[C@@H](CCCCN)C(=O)N2CCC[C@H]2C(=O)N[C@H](C)C(=O)N[C@@H](CCCNC(=N)N)C(=O)N[C@@H](Cc2cnc[nH]2)C(=O)N1)[C@@H](C)CC)C(=O)N[C@H](C(=O)N[C@@H](CCCNC(=N)N)C(=O)N[C@@H](CCC(N)=O)C(=O)N[C@@H](CCCNC(=N)N)C(=O)N[C@@H](Cc1ccc(O)cc1)C(=O)O)[C@@H](C)O`, the Ki in experiment [1] was above 1000 nM; in experiment [2], 0.5 nM.

`CC[C@H](C)[C@@H]1NC(=O)[C@H](CC(C)C)NC(=O)[C@H](CC(N)=O)NC(=O)[C@@H](NC(=O)[C@H](Cc2ccc(O)cc2)NC(=O)[C@H](Cc2cnc[nH]2)NC(=O)[C@H](CCCNC(=N)N)NC(=O)[C@@H](C)NC(=O)[C@@H]2CCCN2C(=O)[C@H](CCCCN)NC(=O)[C@H](CO)NC(=O)[C@@H]2CCCN2C(=O)[C@@H](N)Cc2ccc(O)cc2)CCCCNC(=O)CC[C@@H](C(=O)N[C@@H](CCCNC(=N)N)C(=O)N[C@@H](CCC(N)=O)C(=O)N[C@@H](CCCNC(=N)N)C(=O)N[C@@H](Cc2ccc(O)cc2)C(=O)O)NC1=O`: the inhibitory constant (Ki) in experiment [1] was above 1000 nM; in experiment [2], 0.5 nM.

Turning to `CC[C@H](C)[C@H](NC(=O)[C@H](Cc1ccc(O)cc1)NC(=O)[C@H](Cc1cnc[nH]1)NC(=O)[C@H](CCCNC(=N)N)NC(=O)CCCCCNC(=O)[C@H](CCCCN)NC(=O)[C@H](CO)NC(=O)[C@@H]1CCCN1C(=O)[C@@H](N)Cc1ccc(O)cc1)C(=O)N[C@@H](CC(N)=O)C(=O)N[C@@H](CC(C)C)C(=O)N[C@H](C(=O)N[C@H](C(=O)N[C@@H](CCCNC(=N)N)C(=O)N[C@@H](CCC(N)=O)C(=O)N[C@@H](CCCNC(=N)N)C(=O)N[C@@H](Cc1ccc(O)cc1)C(=O)O)[C@@H](C)O)[C@@H](C)CC` (H-YPSK[Ahx]RHYINLITRQRY-OH), the Ki in experiment [1] came to 261 nM; in experiment [2], 1 nM.

For H-YPSKPGRHYINLITRQRY-OH, the Ki in experiment [2] turned out to be 3.1 nM.
